Test results from patent US7718809B2, “Chromane substituted benzimidazole derivatives as acid pump antagonists” (RaQualia Pharma Inc., priority 2005, dated 2010).
pIC50: −log10 of the molar value.

biological target: T1, porcine gastric H+/K+-ATPase (Sus scrofa, UniProt P19156); test: Ion-tight porcine gastric H+/K+-ATPase inhibition; type: biochemical; details: ion-tight gastric vesicles, 150 mM KCl, valinomycin, pH 7.4, 37° C.
T1 construct: prepared from mucous membrane in fresh porcine stomachs by homogenization; from tissue; host or cells: mucous membrane of fresh porcine stomachs (gastric vesicles)
T1 sequence (P19156 2-1034 limits assumed): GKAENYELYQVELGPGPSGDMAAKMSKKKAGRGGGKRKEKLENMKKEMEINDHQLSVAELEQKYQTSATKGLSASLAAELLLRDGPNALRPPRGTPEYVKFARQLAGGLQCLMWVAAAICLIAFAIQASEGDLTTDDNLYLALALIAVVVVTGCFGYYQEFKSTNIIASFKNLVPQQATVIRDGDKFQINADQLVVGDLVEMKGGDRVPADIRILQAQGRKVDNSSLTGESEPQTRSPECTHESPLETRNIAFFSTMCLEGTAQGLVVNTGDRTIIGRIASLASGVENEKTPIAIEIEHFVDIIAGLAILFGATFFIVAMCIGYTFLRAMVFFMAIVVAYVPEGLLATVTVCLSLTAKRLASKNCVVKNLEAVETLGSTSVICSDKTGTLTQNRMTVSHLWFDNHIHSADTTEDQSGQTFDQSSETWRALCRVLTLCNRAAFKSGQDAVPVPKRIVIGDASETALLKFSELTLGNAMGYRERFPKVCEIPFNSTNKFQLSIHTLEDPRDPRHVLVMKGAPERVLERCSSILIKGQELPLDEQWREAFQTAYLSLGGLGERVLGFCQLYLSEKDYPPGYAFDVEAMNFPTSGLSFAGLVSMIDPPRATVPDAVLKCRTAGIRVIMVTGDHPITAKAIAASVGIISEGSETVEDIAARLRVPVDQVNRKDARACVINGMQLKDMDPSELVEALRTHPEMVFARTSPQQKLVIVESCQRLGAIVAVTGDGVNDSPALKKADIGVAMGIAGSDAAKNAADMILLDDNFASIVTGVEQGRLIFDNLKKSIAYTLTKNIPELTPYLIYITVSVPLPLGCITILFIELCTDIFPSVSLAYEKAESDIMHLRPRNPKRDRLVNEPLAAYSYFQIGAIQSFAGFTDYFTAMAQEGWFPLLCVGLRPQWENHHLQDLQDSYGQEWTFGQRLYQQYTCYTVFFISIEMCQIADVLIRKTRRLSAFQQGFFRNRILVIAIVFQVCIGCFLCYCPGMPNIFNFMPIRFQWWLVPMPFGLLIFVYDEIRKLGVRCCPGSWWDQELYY
T1 sequence (P18434 whole entry partner): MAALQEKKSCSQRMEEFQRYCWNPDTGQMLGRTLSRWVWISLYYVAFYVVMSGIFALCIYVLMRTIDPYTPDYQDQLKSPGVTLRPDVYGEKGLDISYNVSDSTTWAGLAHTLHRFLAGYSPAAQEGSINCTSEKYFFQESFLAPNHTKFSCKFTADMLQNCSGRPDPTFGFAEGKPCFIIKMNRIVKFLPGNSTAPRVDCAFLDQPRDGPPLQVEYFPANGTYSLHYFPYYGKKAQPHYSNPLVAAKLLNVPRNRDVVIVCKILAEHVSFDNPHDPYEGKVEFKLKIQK
Experimental: The porcine gastric vesicles for Porcine gastric H^+/K^+-ATPase inhibition assays were prepared from mucous membrane in fresh porcine stomachs by homogenization with a tight-fitted polytetrafluoroethylene (Teflone®) homogenizer in 0.25 M sucrose at 4° C. The crude pellet was removed with centrifugation at 20,000 g for 30 min. Then supernatant was centrifuged at 100,000 g for 30 min. The resulting pellet was re-suspended in 0.25 M sucrose, and then subjected to density gradient centrifugation at 132,000 g for 90 min. The gastric vesicles were collected from interface on 0.25 M sucrose layer containing 7% Ficoll™ PM400(Amersham Biosciences). This procedure was performed in a cold room.
Ion-tight porcine gastric H^+/K^+-ATPase inhibition was measured according to the modified method described in Biochemical Pharmacology, 1988, 37, 2231-2236.
The isolated vesicles were kept in deep-freezer until use. For enzyme assay, vesicles were diluted with 3 mM MgSO4 containing 5 mM Tris (pH 7.4 at 37° C).
Enzyme reaction was performed incubating 150 mM KCl, 3 mM Na2ATP, 3 mM MgSO4, 15 μM valinomycin and 3.0 μg of vesicles for 30 minutes at 37° C. in a final 60 μl of reaction mixture (5 mM Tris, pH 7.4) with or without the test compound. Enzyme reaction was stopped by adding 10% SDS. Released inorganic phosphate from ATP was detected by incubating with mixture of 1 part of 35 mM ammonium molybdate tetrahydrate in 15 mM Zinc acetate hydrate and 4 parts of 10% ascorbic acid (pH 5.0), resulting in phosphomolybdate, which has optical density at 750 nm.

Row | SMILES | pIC50
1 | Cc1nc2c(OC3CCOc4cc(F)ccc43)cc(C(=O)N(C)C)cc2n1C (racemic) [Example 2, 4-[(7-Fluoro-3,4-dihydro-2H-chromen-4-yl)oxy]-N,N,1,2-tetramethyl-1H-benzimidazole-6-carboxamide] | 7.16
2 | Cc1nc2c(OC3CCOc4cc(F)ccc43)cc(C(=O)N(C)C)cc2n1C (single isomer, unassigned; (+)) [Example 4, (+)-4-[(7-Fluoro-3,4-dihydro-2H-chromen-4-yl)oxy]-N,N,1,2-tetramethyl-1H-benzimidazole-6-carboxamide] | 6.36
3 | Cc1nc2c(OC3CCOc4cc(F)ccc43)cc(C(=O)N(C)C)cc2n1C (single isomer, unassigned; (-)) [Example 3, (−)-4-[(7-Fluoro-3,4-dihydro-2H-chromen-4-yl)oxy]-N,N,1,2-tetramethvl-1H-benzimidazole-6-carboxamide] | 6.36
4 | Cc1nc2c(OC3CCOc4ccccc43)cc(C(=O)N(C)C)cc2n1C (stereo not drawn) [Example 1, 4-(3,4-Dihydro-2H-chromen-4-yloxy)-N,N,1,2-tetramethyl-1H-benzimidazole-6-carboxamide] | 6.25
5 | Cc1cccc2c1C(Oc1cc(C(=O)N(C)C)cc3c1nc(C)n3C)CCO2 (stereo not drawn) [Example 8, N,N,1,2-Tetramethyl-4-[(5-methyl-3,4-dihydro-2H-chromen-4-yl)oxy]-1H-benzimidazole-6-carboxamide] | 6.74
6 | Cc1nc2c(OC3COCc4ccccc43)cc(C(=O)N(C)C)cc2n1C (stereo not drawn) [Example 10, 4-(3,4-Dihydro-1H-isochromen-4-yloxy)-N,N,1,2-tetramethvl-1H-benzimidazole-6-carboxamide] | 6.49
7 | Cc1nc2c(OC3CCOc4ccccc43)cc(C(=O)N(C)CCO)cc2n1C (stereo not drawn) [Example 11, 4-(3,4-Dihydro-2H-chromen-4-yloxy)-N-(2-hydroxyethyl)-N,1,2-trimethyl-1H-benzimidazole-6-carboxamide] | 6.37
8 | Cc1nc2c(OC3CCOc4ccccc43)cc(C(=O)N3CC[C@H](O)C3)cc2n1C (stereo partly drawn) [Example 12, (3S)-1-{[4-(3,4-Dihydro-2H-chromen-4-yloxy)-1,2-dimethyl-1H-benzimidazol-6-yl]carbonyl}pyrrolidin-3-ol] | 6.17
9 | Cc1nc2c(OC3CCOc4ccccc43)cc(C(=O)N3CCC[C@@H]3CO)cc2n1C (stereo partly drawn) [Example 14] | 6.01
10 | CC(=O)N1CCN(C(=O)c2cc(OC3CCOc4ccccc43)c3nc(C)n(C)c3c2)CC1 (stereo not drawn) [Example 16, 6-[(4-Acetylpiperazin-1-yl)carbonyl]-4-(3,4-dihydro-2H-chromen-4-yloxy)-1,2-dimethyl-1H-benzimidazole] | 6.85

Second part, the molecule after the results:

Row | pIC50 | SMILES
11 | 7.05 | Cc1nc2c(OC3CCOc4cc(F)cc(F)c43)cc(C(=O)N(C)C)cc2n1C (racemic) [Example 5, 4-[(5,7-Difluoro-3,4-dihydro-2H-chromen-4-yl)oxy]-N,N,1,2-tetramethyl-1H-benzimidazole-6-carboxamide]
12 | 6.02 | Cc1nc2c(OC3CCOc4cccc(F)c43)cc(C(=O)N(C)C)cc2n1C (racemic) [Example 9, 4-[(5-Fluoro-3,4-dihydro-2H-chromen-4-yl)oxy]-N,N,1,2-tetramethyl-1H-benzimidazole-6-carboxamide]
13 | 6.17 | CNC(=O)c1cc(OC2CCOc3cc(F)cc(F)c32)c2nc(C)n(C)c2c1 (racemic) [Example 19, 4-[(5,7-Difluoro-3,4-dihydro-2H-chromen-4-yl)oxy]-N,1,2-trimethyl-1H-benzimidazole-6-carboxamide]
14 | 6.74 | Cc1nc2c(OC3CCOc4cc(F)cc(F)c43)cc(C(=O)N3CCC3)cc2n1C (racemic) [Example 22, 6-(Azetidin-1-ylcarbonyl)-4-[(5,7-difluoro-3,4-dihydro-2H-chromen-4-yl)oxy]-1,2-dimethyl-1H-benzimidazole]
15 | 6.66 | Cc1nc2c(OC3CCOc4cc(F)cc(F)c43)cc(C(=O)N(C)C)cc2n1C (single isomer, unassigned; (+)) [Example 7, (+)-4-[(5,7-Difluoro-3,4-dihydro-2H-chromen-4-yl)oxy]-N,N,1,2-tetramethyl-1H-benzimidazole-6-carboxamide]
16 | 6.62 | Cc1nc2c(OC3CCOc4cccc(F)c43)cc(C(=O)N(C)C)cc2n1C (single isomer, unassigned; (+)) [Example 18, (+)-4-{[5-Fluoro-3,4-dihydro-2H-chromen-4-yl]oxy}-N,N,1,2-tetramethyl-1H-benzimidazole-6-carboxamide]
17 | 6.31 | CNC(=O)c1cc(OC2CCOc3cc(F)cc(F)c32)c2nc(C)n(C)c2c1 (single isomer, unassigned; (+)) [Example 21, (+)-4-[(5,7-Difluoro-3,4-dihydro-2H-chromen-4-yl)oxy]-N,1,2-trimethyl-1H-benzimidazole-6-carboxamide]
18 | 6.21 | Cc1nc2c(OC3CCOc4cc(F)cc(F)c43)cc(C(=O)N3CCC3)cc2n1C (single isomer, unassigned; (+)) [Example 24, (+)-6-(Azetidin-1-ylcarbonyl)-4-[(5,7-difluoro-3,4-dihydro-2H-chromen-4yl)oxy]-1,2-dimethyl-1H-benzimidazole]
19 | 6.68 | Cc1nc2c(OC3CCOc4cc(F)cc(F)c43)cc(C(=O)N(C)C)cc2n1C (single isomer, unassigned; (-)) [Example 6, (−)-4-[(5,7-Difluoro-3,4-dihydro-2H-chromen-4-yl)oxy]-N,N,1,2-tetramethyl-1H-benzimidazole-6-carboxamide]
20 | 6.47 | Cc1nc2c(OC3CCOc4cccc(F)c43)cc(C(=O)N(C)C)cc2n1C (single isomer, unassigned; (-)) [Example 17, (−)-4-{[5-Fluoro-3,4-dihydro-2H-chromen-4-yl]oxy}-N,N,1,2-tetramethyl-1H-benzimidazole-6-carboxamide]
21 | 6.21 | CNC(=O)c1cc(OC2CCOc3cc(F)cc(F)c32)c2nc(C)n(C)c2c1 (single isomer, unassigned; (-)) [Example 20, (−)-4-[(5,7-Difluoro-3,4-dihydro-2H-chromen-4-yl)oxy]-N,1,2-trimethyl-1H-benzimidazole-6-carboxamide]
22 | 6.36 | Cc1nc2c(OC3CCOc4cc(F)cc(F)c43)cc(C(=O)N3CCC3)cc2n1C (single isomer, unassigned; (-)) [Example 23, (−)-6-(Azetidin-1-ylcarbonyl)-4-[(5,7-difluoro-3,4-dihydro-2H-chromen-4-yl)oxy]-1,2-dimethyl-1H-benzimidazole]
23 | 6.92 | Cc1nc2c(OC3CCOc4ccccc43)cc(C(=O)N3CC[C@@H](O)C3)cc2n1C (stereo partly drawn) [Example 13, (3R)-1-{[4-(3,4-Dihydro-2H-chromen-4-yloxy)-1,2-dimethyl-1H-benzimidazol-6-yl]carbonyl}pyrrolidin-3-ol]
24 | 6.02 | Cc1nc2c(OC3CCOc4ccccc43)cc(C(=O)N3CCN(C)CC3)cc2n1C (stereo not drawn) [Example 15, 4-(3,4-Dihydro-2H-chromen-4-yloxy)-1,2-dimethyl-6-[(4-methylpiperazin-1-yl)carbonyl]-1H-benzimidazole]
25 | 6.23 | Cc1nc2c(OC3CCOc4cc(F)cc(F)c43)cc(C(=O)N3CCCC3)cc2n1C (stereo not drawn) [Example 25, 4-[(5,7-Difluoro-3,4-dihydro-2H-chromen-4-yl)oxy]-1,2-dimethyl-6-(pyrrolidin-1-ylcarbonyl)-1H-benzimidazole]
26 | 6.32 | Cc1nc2c(OC3CCOc4cc(F)cc(F)c43)cc(C(=O)N3CC(C)(O)C3)cc2n1C (stereo not drawn) [Example 26, 1-({4-[(5,7-Difluoro-3,4-dihydro-2H-chromen-4-yl)oxy]-1,2-dimethyl-1H-benzimidazol-6-yl}carbonyl)-3-methylazetidin-3-ol]

tested on: gastric acid secretion; test: Inhibition of gastric acid secretion in the Heidenhain pouch dog; type: in vivo, Beagle dogs; details: histamine-stimulated (80 μg/kg/h) acid secretion, oral or intravenous bolus administration
Experimental: Male Beagle dogs weighing 7-15 kg with Heidenhain pouch [Heidenhain R: Arch Ges Physiol. 1879; 19: 148-167] were used. The animals were allowed to recover from surgery for at least three weeks before the experiments. The animals were kept at a 12 hour light-dark rhythm, housed singly. They received standard food once daily at 11:00 a.m. and tap water ad libitum, and were fasted overnight prior to the experiment, with free access to water. Gastric juice samples were collected throughout the experiment by gravity drainage every 15 min. Acidity in the gastric juice was measured by titration to the end point of pH 7.0. Acid secretion was stimulated by a continuous intravenous infusion of histamine (80 μg/kg/h). Oral or intravenous bolus administration of the test compounds was done 90 minutes after commencement of the histamine infusion. The acid secretion was monitored after the administration. The activity was evaluated by the maximum inhibition relative to the corresponding control value.

Row | SMILES | inhibitory activity (maximum inhibition of acid secretion relative to control)
27 | Cc1nc2c(OC3CCOc4cc(F)cc(F)c43)cc(C(=O)N(C)C)cc2n1C (single isomer, unassigned; (-)) [Example 6, (−)-4-[(5,7-Difluoro-3,4-dihydro-2H-chromen-4-yl)oxy]-N,N,1,2-tetramethyl-1H-benzimidazole-6-carboxamide] | good inhibitory activity
